Results as given in ChEMBL document CHEMBL1130543, “Solid-phase synthesis of hybrid thiazolidinedione-fatty acid PPAR ligands” (Bioorg Med Chem Lett, 1997).

Legend:
[1] = target: T1, Peroxisome proliferator-activated receptor gamma (Homo sapiens, UniProt P37231)
T1 sequence (P37231 whole entry): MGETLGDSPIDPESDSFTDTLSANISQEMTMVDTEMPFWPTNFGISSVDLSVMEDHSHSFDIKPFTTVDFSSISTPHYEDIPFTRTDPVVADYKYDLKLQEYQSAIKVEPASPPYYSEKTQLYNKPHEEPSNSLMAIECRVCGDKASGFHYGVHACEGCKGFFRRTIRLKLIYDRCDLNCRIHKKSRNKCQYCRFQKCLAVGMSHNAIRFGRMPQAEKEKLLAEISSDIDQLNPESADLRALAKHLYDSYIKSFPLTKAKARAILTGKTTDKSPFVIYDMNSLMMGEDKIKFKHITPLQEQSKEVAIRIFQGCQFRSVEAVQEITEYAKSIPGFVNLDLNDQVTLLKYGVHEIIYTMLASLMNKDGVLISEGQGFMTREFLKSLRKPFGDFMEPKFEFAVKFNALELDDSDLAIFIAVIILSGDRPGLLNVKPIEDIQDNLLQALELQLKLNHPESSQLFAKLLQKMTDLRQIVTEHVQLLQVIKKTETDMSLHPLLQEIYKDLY
Description: Binding affinity was determined by displacement of 20 nM [3H]- thiazolidinedione from 4 nM biotinylated human peroxisome proliferator-activated receptor (PPAR gamma) ligand binding domain

[2] = Tested for transactivation of human PPAR gamma-Gal4 chimera in CV-1 cells; assay type: functional, cell-based
[3] = target: T1, Peroxisome proliferator-activated receptor gamma; assay: Binding affinity was determined by displacement of 20 nM [3H]- thiazolidinedione from 4 nM biotinylated human Peroxisome proliferator activated receptor gamma (PPAR gamma) ligand binding domain

Structure (SMILES) | Ki [1] | Ki [3] | EC50 [2]
C=CCCC(=O)N(C)CCOc1ccc(CC2SC(=O)NC2=O)cc1 (stereo not drawn) | 600 nM |  | 
CC/C=C/C(=O)NCCOc1ccc(CC2SC(=O)NC2=O)cc1 (stereo not drawn) | > 10000 nM |  | 
CCCCC/C=C/C/C=C\C/C=C\C/C=C\CCCC(=O)O | 1500 nM |  | 30000 nM
CCCCCCCCC(=O)N(C)CCOc1ccc(CC2SC(=O)NC2=O)cc1 (stereo not drawn) | 18 nM |  | 280 nM
C=CCC/C=C/C(=O)NCCOc1ccc(CC2SC(=O)NC2=O)cc1 (stereo not drawn) | 6800 nM |  | 
CCCCCC(=O)N(C)CCOc1ccc(CC2SC(=O)NC2=O)cc1 (stereo not drawn) | 180 nM |  | 
C/C=C/CC(=O)NCCOc1ccc(CC2SC(=O)NC2=O)cc1 (stereo not drawn) | > 10000 nM |  | 
C=CCC/C=C/C(=O)N(C)CCOc1ccc(CC2SC(=O)NC2=O)cc1 (stereo not drawn) | 18 nM |  | 520 nM
CCCCCCCCCC(=O)N(C)CCOc1ccc(CC2SC(=O)NC2=O)cc1 (stereo not drawn) | 20 nM |  | 290 nM
CCCCC(=O)N(C)CCOc1ccc(CC2SC(=O)NC2=O)cc1 (stereo not drawn) | 1100 nM |  | 
CCCCCCCC(=O)N(C)CCOc1ccc(CC2SC(=O)NC2=O)cc1 (stereo not drawn) | 48 nM |  | 280 nM
CCCCCCC(=O)N(C)CCOc1ccc(CC2SC(=O)NC2=O)cc1 (stereo not drawn) | 61 nM |  | 810 nM
CN(CCOc1ccc(CC2SC(=O)NC2=O)cc1)c1ccccn1 (stereo not drawn) [ROSIGLITAZONE] |  |  | 50 nM
CC/C=C/C(=O)N(C)CCOc1ccc(CC2SC(=O)NC2=O)cc1 (stereo not drawn) | 1200 nM |  | 
C/C=C/CC(=O)N(C)CCOc1ccc(CC2SC(=O)NC2=O)cc1 (stereo not drawn) | 1200 nM |  | 

Now from value to molecule, other results behind:

Ki [1] | Ki [3] | Structure (SMILES) | EC50 [2]
> 10000 nM |  | CCCCC(=O)NCCOc1ccc(CC2SC(=O)NC2=O)cc1 (stereo not drawn) | 
130 nM |  | CCCCCCCCCC(=O)NCCOc1ccc(CC2SC(=O)NC2=O)cc1 (stereo not drawn) | 
> 10000 nM |  | C=CCCC(=O)NCCOc1ccc(CC2SC(=O)NC2=O)cc1 (stereo not drawn) | 
270 nM |  | CCCCCCCCC(=O)NCCOc1ccc(CC2SC(=O)NC2=O)cc1 (stereo not drawn) | 
290 nM |  | CCCCCCCC(=O)NCCOc1ccc(CC2SC(=O)NC2=O)cc1 (stereo not drawn) | 
1400 nM |  | CCCCCCC(=O)NCCOc1ccc(CC2SC(=O)NC2=O)cc1 (stereo not drawn) | 
 | 10000 nM | CCCCCC(=O)NCCOc1ccc(CC2SC(=O)NC2=O)cc1 (stereo not drawn) | 
